Source: the supplement of paper PMC10933113
Counter-ions that a name gives are not always drawn. ± gives the uncertainty stated by the source.

How the values were obtained:
[1] = tested on: THP-1; assay: AC50 of IL-8 secretion induction; higher = less potent; settings: exposure time: 18 h
[2] = tested on: KeratinoSens (HaCaT ARE-luciferase) cells; assay: efficacy of ARE luciferase induction relative to DMSO (% activity over DMSO); higher = stronger induction; settings: exposure time: 24 h
[3] = tested on: lysine peptide Ac-RFAAKAA-COOH; assay: efficacy of lysine peptide change (negative = depletion) (% activity); higher = less depletion; settings: incubation time: 24 h
[4] = tested on: cysteine peptide Ac-RFAACAA-COOH; assay: efficacy of cysteine peptide change (negative = depletion) (% activity); higher = less depletion; settings: incubation time: 24 h
[5] = tested on: THP-1; assay: efficacy of IL-8 induction relative to DMSO (% activity); higher = stronger induction; settings: exposure time: 18 h
[6] = tested on: KeratinoSens (HaCaT ARE-luciferase) cells; assay: cytotoxicity AC50 (CellTiter-Fluor viability); higher = less cytotoxic; settings: exposure time: 24 h
[7] = tested on: KeratinoSens (HaCaT ARE-luciferase) cells; assay: AC50 of Nrf2/ARE luciferase induction; higher = less potent; settings: exposure time: 24 h
[8] = tested on: cysteine peptide Ac-RFAACAA-COOH; assay: AC50 of cysteine peptide concentration-response (direction given by sign of efficacy); higher = less potent; settings: incubation time: 24 h

| SMILES | AC50 of IL-8 secretion induction [1] [µM] | efficacy of ARE luciferase induction [2] | efficacy of lysine peptide change [3] | efficacy of cysteine peptide change [4] | efficacy of IL-8 induction [5] | cytotoxicity AC50 [6] [µM] | AC50 of Nrf2/ARE luciferase induction [7] [µM] | AC50 [8] [µM] |
| --- | --- | --- | --- | --- | --- | --- | --- | --- |
| COC(=O)Nc1nc2cc(Sc3ccccc3)ccc2[nH]1 [Fenbendazole] | 39.8 | 46 ± 53 | 33.8 ± 41 | 0 | 213 ± 14 | 3.46 ± 1.9 | – | – |
| O=[N+]([O-])c1ccc(Oc2ccc(C(F)(F)F)cc2[N+](=O)[O-])cc1 [Fluorodifen] | 43.1 | 45.8 ± 80 | 2.81 ± 12 | -4.44 ± 7.7 | 109 ± 12 | 29.6 ± 5.3 | – | – |
| N#C/C=C/C#N [Fumaronitrile] | – | 193 ± 39 | -12.4 ± 34 | -104 ± 7.3 | 8.38 ± 7.6 | 23.1 ± 6.4 | 32.9 | 3.3 ± 0.42 |
| O=[N+]([O-])c1cc(N(CCO)CCO)ccc1NCCO [HC Blue 2] | 66.8 | 0 | 0 | -49.3 ± 1.9 | 38.4 ± 82 | – | – | 18.7 ± 3.4 |
| c1ccc2c(c1)OCC(C1=NCCN1)O2 (stereo not drawn) [Idazoxan] | – | 39.9 ± 3.1 | -1.64 ± 20 | -124 ± 14 | 12.4 ± 3.5 | 22.4 | 12.6 | 27.3 ± 3.8 |
| [CH3][Hg][Cl] [Methyl mercuric (II) chloride] | – | 188 ± 110 | 0 | -97.5 ± 1.4 | 73.6 ± 0.91 | 6.57 ± 0.44 | 3.98 | 46.5 ± 3.1 |
| CCCCNC(=S)NCCCC [N,N'-Dibutylthiourea] | 89.1 | 41.8 ± 35 | 85.4 ± 13 | -32.7 ± 21 | 90.2 ± 38 | 62 ± 25 | – | – |
| S=C(NC1CCCCC1)NC1CCCCC1 [N,N'-Dicyclohexylthiourea] | 85.9 | 82 ± 95 | -53.1 ± 24 | 5.83 ± 10 | 84.8 ± 36 | 53.1 ± 25 | – | – |
| c1ccc(Nc2ccc(Nc3ccccc3)cc2)cc1 [N,N'-Diphenyl-p-phenylenediamine] | – | 54.7 ± 14 | -22.2 ± 3.3 | -119 ± 12 | 9.77 ± 9.9 | 55.2 ± 14 | 22.5 | 23 ± 18 |
| CN(C)c1ccc(N)cc1 [N,N-Dimethyl-p-phenylenediamine] | – | 84.5 ± 29 | -17.1 ± 8.3 | -130 ± 19 | 21 ± 7.2 | – | 17.1 | 8.18 ± 2.3 |
| c1ccc2sc(SNC3CCCCC3)nc2c1 [N-Cyclohexyl-2-benzothiazolesulfenamide] | 85.9 | 135 ± 140 | 24.6 ± 4.2 | -89.9 ± 7 | 101 ± 42 | – | – | 11.1 ± 3.1 |
| COP(=O)(OC)OC(Br)C(Cl)(Cl)Br (stereo not drawn) [Naled] | – | 307 ± 93 | -3.08 ± 5.3 | -89.9 ± 2.4 | 8.61 ± 7.6 | 46.5 ± 3.1 | 31.8 | 0.93 ± 0.12 |
| CCCOc1ccc2[nH]c(NC(=O)OC)nc2c1 [Oxibendazole] | 27.7 | 30.2 ± 9.6 | 50.4 ± 6.8 | 0 | 36.3 ± 9.3 | 2.73 ± 0.38 | – | – |
| C=CC(=O)OCC(COC(=O)C=C)(COC(=O)C=C)COC(=O)C=C [Pentaerythritol tetraacrylate] | – | 118 ± 5.8 | -27.5 ± 6 | -102 ± 14 | 23.5 ± 10 | 25.3 ± 4.1 | 15.8 | 3.11 ± 0.76 |
| O=C(/C=C/C=C/c1ccc2c(c1)OCO2)N1CCCCC1 [Piperine] | – | 76 ± 12 | 1.32 ± 18 | -72.8 ± 22 | 13.7 ± 14 | 44 ± 11 | 29.1 | 80.8 ± 18 |
| O=C1OC(CCN2CCCCC2)OC1(c1ccccc1)c1ccccc1 (stereo not drawn) [Pipoxolan hydrochloride] | – | 107 ± 83 | -49.6 ± 25 | -104 ± 2.6 | 0 | 33.5 ± 2.7 | 20.7 | 4.43 ± 1.9 |
| COc1cccc2c1C(=O)c1c(O)c3c(c(O)c1C2=O)C[C@@](O)(C(=O)CO)C[C@@H]3O[C@H]1C[C@H](N)[C@H](O[C@@H]2CCCCO2)[C@H](C)O1 [Pirarubicin*] | – | 638 ± 360 | -33.9 ± 4.4 | -101 ± 3.8 | 21.1 ± 6.6 | 17.9 ± 6.5 | 20.5 | 3.01 ± 1.5 |
| CCCSS/C(CCO)=C(/C)N(C=O)Cc1cnc(C)nc1N [Prosultiamine] | – | 433 ± 21 | 154 ± 29 | -112 ± 9.3 | 30.5 ± 12 | 26.1 ± 1.8 | 15.8 | 1.59 ± 0.18 |
| CC(C)=CC1C(C(=O)OCc2coc(Cc3ccccc3)c2)C1(C)C (stereo not drawn) [Resmethrin] | – | 69.7 ± 30 | -58 ± 4.8 | -122 ± 8.3 | 4.15 ± 7.2 | – | 46.5 | 58.1 ± 19 |
| O=C(N/N=C/c1ccccc1O)c1ccncc1 [Salinazid] | 20 | -34.3 ± 30 | 16.7 ± 23 | -3.5 ± 6.1 | 45.6 ± 14 | 4.76 ± 1.3 | – | – |
| O=C(Nc1ncc([N+](=O)[O-])s1)c1cccs1 [Tenonitrozole] | – | 27.5 ± 48 | 33.7 ± 8.7 | -93.3 ± 27 | 6.75 ± 5.9 | 12.7 ± 2 | 8.8 | 96.8 ± 13 |
| O=C(O)Cc1cc(I)c(Oc2cc(I)c(O)c(I)c2)c(I)c1 [Tetrac] | – | 377 ± 69 | 6.09 ± 18 | -91.9 ± 9.5 | 0 | – | 43.1 | 33.5 ± 7.5 |
| Cc1ccc(O)c2ncccc12 [Tiliquinol] | 4.38 | -35.2 ± 3.8 | -8.95 ± 16 | -11.2 ± 4.1 | 117 ± 19 | 2.47 ± 0.62 | – | – |
| CC(C)CCCCCCCOC(=O)c1ccc(C(=O)OCCCCCCCC(C)C)c(C(=O)OCCCCCCCC(C)C)c1 [Triisodecyl trimellitate] | – | 72.5 ± 41 | -10.8 ± 18 | -22.8 ± 5 | 13.5 ± 0.9 | – | 42.2 | 19.9 |
| [Cl][Bi]([Cl])([c]1ccccc1)([c]1ccccc1)[c]1ccccc1 [Triphenylbismuthine dichloride] | – | 95.5 ± 39 | 23.5 ± 22 | -96.9 ± 5.6 | 92.2 ± 110 | 28.2 | 14.2 | 0.85 ± 0.38 |
| Cc1cc(C2(c3cc(C)c(O)cc3C)OS(=O)(=O)c3ccccc32)c(C)cc1O [p-Xylenol blue] | 52.2 | 0 | 121 ± 16 | -13.7 ± 2.3 | 45.6 ± 8.1 | 28.6 ± 6 | – | – |
